These results are taken from patent publication US20130109682A1, “CYCLIC ETHER COMPOUNDS USEFUL AS KINASE INHIBITORS” (NOVARTIS AG, priority 2010, published 2013).

Each structure is given as a SMILES string. pEC50, pIC50: −log10 of the molar value. Where two headings read alike, the source gives them in different places.

Experiment [1] addresses T1, PIM2 (Homo sapiens, UniProt Q9P1W9). Nature of the experiment: Pim 2 AlphaScreen assay (high ATP). The experiment is classed as biochemical. Conditions: read-out: Pim2 IC50. On the procedure: Pim1, Pim2, Pim3 AlphaScreen Assay Pim 1, Pim 2 & Pim 3 AlphaScreen assays using high ATP (11-125×ATP Km) were used to determine the biochemical activity of the inhibitors. The activity of Pim 1, Pim 2, & Pim 3 is measured using a homogeneous bead based system quantifying the amount of phosphorylated peptide substrate resulting from kinase-catalyzed phosphoryl transfer to a peptide substrate. Compounds to be tested are dissolved in 100% DMSO and directly distributed to a white 384-well plate at […] per well. To start the reaction, 5 μl of 100 nM Bad peptide (Biotin-AGAGRSRHSSYPAGT —OH) and ATP (concentrations described below) in assay buffer (50 mM Hepes, pH=7.5, 5 mM MgCl2, 0.05% BSA, 0.01% Tween-20, 1 mM DTT) is added to each well. This is followed by the addition of 5 μl/well of Pim 1, Pim 2 or Pim 3 kinase in assay buffer (concentrations described below). Final assay concentrations (described below) are in 2.5% DMSO. The reactions are performed for ˜2 hours, then stopped by the addition of 10 μl of 0.75 μg/ml anti-phospho Ser/Thr antibody (Cell Signaling), 10 μg/ml Protein A AlphaScreen beads (Perkin Elmer), and 10 μg/ml streptavidin coated AlphaScreen beads in stop/detection buffer (50 mM EDTA, 95 mM Tris, pH=7.5, 0.01% Tween-20). The stopped reactions are incubated overnight in the dark. The phosphorylated peptide is detected via an […] initiated chemiluminescence/fluorescence cascade using the Envision plate reader (Perkin Elmer).
IC50, the half maximal inhibitory concentration, represents the concentration of a test compound that is required for 50% inhibition of its target in vitro under the described assay conditions.

The target of experiment [2] is GSK3β (Homo sapiens, UniProt P49841). Nature of the experiment: GSK3β ATP depletion assay. In kind it is biochemical. Conditions: read-out: GSK3b IC50. Summed up: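 Kinase activity is read as ATP consumption: luciferase luminescence reports the ATP remaining once roughly half of the 2 μM ATP is used. Reaction mix: 5 nM GSK3β, 10 μM b-CREB peptide, 50 mM Tris pH 7.5, 15 mM MgCl2, 1 mM DTT, 0.1% BSA, 2.5% DMSO. Enzyme and peptide are preincubated 15 min before ATP is added.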

Experiment [3] deals with PIM1 (Homo sapiens, UniProt P11309). In words: KinaseGlo Pim1 ATP depletion assay. In kind it is biochemical. An outline of the steps: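 IC50 is derived from residual ATP measured by KinaseGlo Plus luminescence once about half the ATP was consumed. Final conditions were 20 μM ATP, 40 μM BAD peptide and 2.5 nM kinase in HEPES pH 7.5 buffer with MgCl2, DTT and BSA, plus 2.5% DMSO. Compound and enzyme were premixed 15 min before ATP addition.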

Experiment [4] has as its system KMS11 (human myeloma cell line). Nature of the experiment: Cell proliferation assay (CellTiter-Glo), KMS11. The experiment is classed as cell-based. Conditions: Homo sapiens, KMS-11; KMS11-Luc cells. Summed up: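 EC50 derived from CellTiter-Glo luminescence after 3-day exposure at 37° C. Compound was diluted to 2× in medium and added to an equal volume of cells. KMS11 myeloma cells were plated on assay day at 2000/well in IMDM with 10% FBS and sodium pyruvate.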

Experiment [5] has as its target PIM3 (Homo sapiens, UniProt Q86V86). In words: KinaseGlo Pim3 ATP depletion assay. In kind it is biochemical. An outline of the steps:
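Residual ATP was detected by luciferase luminescence once about half had been consumed. The reaction contained 5 nM enzyme, 100 μM BAD peptide (RSRHSSYPAGT) and 40 μM ATP in 50 mM HEPES pH 7.5, 5 mM MgCl2, 1 mM DTT and 0.05% BSA with 2.5% DMSO. Compound and enzyme/peptide were premixed 15 min before ATP.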

The target in experiment [6] is T1, PIM2. Nature of the experiment: KinaseGlo Pim2 ATP depletion assay. In kind it is biochemical. Summed up:
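Compound sat 15 min with enzyme and BAD peptide before ATP was added; final levels 5 nM PIM2, 10 μM peptide, 4 μM ATP, 2.5% DMSO, pH 7.5 HEPES buffer with MgCl2, DTT, BSA. Stopped near 50% ATP consumption; remaining ATP measured by luciferase luminescence.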

Sequence of GSK3β (P49841 whole entry, species assumed): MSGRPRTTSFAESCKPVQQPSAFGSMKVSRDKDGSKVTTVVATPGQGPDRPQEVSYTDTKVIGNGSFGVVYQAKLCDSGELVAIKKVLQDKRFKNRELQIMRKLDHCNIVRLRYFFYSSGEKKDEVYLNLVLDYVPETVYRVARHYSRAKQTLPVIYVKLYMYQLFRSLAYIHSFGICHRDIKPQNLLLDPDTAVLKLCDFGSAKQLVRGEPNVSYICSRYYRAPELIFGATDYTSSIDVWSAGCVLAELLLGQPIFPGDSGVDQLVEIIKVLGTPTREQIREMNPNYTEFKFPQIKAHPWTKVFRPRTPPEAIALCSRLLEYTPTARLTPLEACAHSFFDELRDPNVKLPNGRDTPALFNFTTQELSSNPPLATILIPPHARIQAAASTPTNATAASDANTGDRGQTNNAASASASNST
T1 sequence (Q9P1W9 whole entry): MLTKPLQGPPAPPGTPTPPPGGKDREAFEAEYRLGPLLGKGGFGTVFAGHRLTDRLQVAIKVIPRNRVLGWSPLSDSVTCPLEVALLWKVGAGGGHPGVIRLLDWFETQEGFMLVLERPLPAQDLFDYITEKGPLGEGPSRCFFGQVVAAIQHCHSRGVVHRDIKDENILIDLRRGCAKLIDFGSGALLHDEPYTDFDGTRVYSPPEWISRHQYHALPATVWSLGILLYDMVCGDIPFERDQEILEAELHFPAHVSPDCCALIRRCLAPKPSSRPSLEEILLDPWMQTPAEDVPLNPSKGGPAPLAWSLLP
Sequence of PIM1 (P11309 whole entry): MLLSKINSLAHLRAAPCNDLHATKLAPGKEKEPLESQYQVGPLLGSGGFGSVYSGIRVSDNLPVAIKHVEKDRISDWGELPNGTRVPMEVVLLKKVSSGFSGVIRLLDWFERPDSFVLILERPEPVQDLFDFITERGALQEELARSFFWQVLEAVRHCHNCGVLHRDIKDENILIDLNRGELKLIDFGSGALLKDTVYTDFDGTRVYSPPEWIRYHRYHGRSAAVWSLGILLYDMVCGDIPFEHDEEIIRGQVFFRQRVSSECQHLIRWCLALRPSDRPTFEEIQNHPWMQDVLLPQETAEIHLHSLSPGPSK

For the compound `CC(=O)Nc1ccc(F)c(-c2nc(C(=O)Nc3cnccc3C3C[C@@H](N)[C@H](O)[C@@H](C(C)C)O3)ccc2F)c1F` (stereo in doubt) [Example 307, 6-(3-acetamido-2,6-difluorophenyl)-N-(4-((2S,4R,5S,6R)-4-amino-5-hydroxy-6-isopropyltetrahydro-2H-pyran-2-yl)pyridin-3-yl)-5-fluoropicolinamide], the pIC50 in experiment [1] was 7.30; in experiment [2] (ATP depletion assay), 5.47.
In the case of `CC(C)[C@H]1O[C@@H](c2ccncc2NC(=O)c2ccnc(-c3c(F)cccc3F)n2)C[C@@H](N)[C@@H]1O` [Example 293, N-(4-((2R,4R,5S,6R)-4-amino-5-hydroxy-6-isopropyltetrahydro-2H-pyran-2-yl)pyridin-3-yl)-2-(2,6-difluorophenyl)pyrimidine-4-carboxamide], the pIC50 in experiment [1] was 6.81; in experiment [2] (ATP depletion assay), 6.02.
For the compound `CC(C)(C)[C@@H]1O[C@H](c2ccncc2NC(=O)c2ccc(F)c(-c3c(F)cccc3F)n2)C[C@@H](N)[C@H]1O` [Example 279, N-(4-((2S,4R,5R,6S)-4-amino-6-(tert-butyl)-5-hydroxytetrahydro-2H-pyran-2-yl)pyridin-3-yl)-6-(2,6-difluorophenyl)-5-fluoropicolinamide], the pIC50 was 7.57 in experiment [1] and 6.26 in experiment [2] (ATP depletion assay).
As for `CC(C)[C@H]1O[C@@H](c2ccncc2NC(=O)c2ccc(F)c(-c3cnc4[nH]ccc4c3)n2)C[C@@H](N)[C@@H]1O` [Example 295, N-(4-((2R,4R,5S,6R)-4-amino-5-hydroxy-6-isopropyltetrahydro-2H-pyran-2-yl)pyridin-3-yl)-5-fluoro-6-(1H-pyrrolo[2,3-b]pyridin-5-yl)picolinamide], the values for the negative logarithm of the IC50 (pIC50) in experiment [1] and in experiment [2] (ATP depletion assay) were 6.46 and 5.37, respectively.
For `CC[C@]1(O)[C@H](N)CC(c2ccncc2NC(=O)c2ccc(F)c(-c3c(F)cc(S(C)(=O)=O)cc3F)n2)O[C@@H]1C` (stereo in doubt) [Example 284, N-(4-((2S,4R,5S,6R)-4-amino-5-ethyl-5-hydroxy-6-methyltetrahydro-2H-pyran-2-yl)pyridin-3-yl)-6-(2,6-difluoro-4-(methylsulfonyl)phenyl)-5-fluoropicolinamide] the same measures were 7.23 and 6.21.
In the case of `CC(C)[C@H]1O[C@@H](c2ccncc2NC(=O)c2ccc(F)c(-c3ccccc3)n2)C[C@@H](N)[C@@H]1O` [Example 309, N-(4-((2R,4R,5S,6R)-4-amino-5-hydroxy-6-isopropyltetrahydro-2H-pyran-2-yl)pyridin-3-yl)-5-fluoro-6-phenylpicolinamide], the negative logarithm of the IC50 (pIC50) in experiment [1] is 6.88; in experiment [2] (ATP depletion assay), 5.09.
With `CC[C@@H]1O[C@H](c2ccncc2NC(=O)c2ccc(F)c(-c3c(F)cccc3F)n2)C[C@H](O)[C@@]1(C)O` [Example 163, 6-(2,6-difluorophenyl)-N-(4-((2S,4S,5R,6S)-6-ethyl-4,5-dihydroxy-5-methyltetrahydro-2H-pyran-2-yl)pyridin-3-yl)-5-fluoropicolinamide], in experiment [1], the pIC50 is 5.13.
In the case of `CC[C@@]1(O)[C@H](C)O[C@H](c2ccncc2NC(=O)c2ccc(F)c(-c3c(F)cccc3F)n2)C[C@@H]1O` [Example 73, 6-(2,6-difluorophenyl)-N-(4-((2S,4S,5S,6S)-5-ethyl-4,5-dihydroxy-6-methyltetrahydro-2H-pyran-2-yl)pyridin-3-yl)-5-fluoropicolinamide], the pIC50 was 8.00 in experiment [3], 6.70 in experiment [5], 5.96 in experiment [6] and 5.49 in experiment [2]. The same compound showed a pEC50 in experiment [4] of less than 5.00.
`COC[C@H]1O[C@@H](c2ccncc2NC(=O)c2ccc(F)c(-c3c(F)cccc3F)n2)C[C@@H](O)[C@@H]1O` [Example 57, 6-(2,6-difluorophenyl)-N-(4-((2R,4R,5S,6R)-4,5-dihydroxy-6-(methoxymethyl)tetrahydro-2H-pyran-2-yl)pyridin-3-yl)-5-fluoropicolinamide]: the pIC50 in experiment [3] was 7.72; in experiment [5], 7.55; in experiment [6], 6.95; in experiment [2], 5.70. The compound also gave a pEC50 in experiment [4] of 5.21.
For `C=C[C@H]1O[C@@H](c2ccncc2NC(=O)c2nc(-c3c(F)cccc3F)ncc2N)C[C@@H](O)[C@@H]1O` [Example 161, 5-amino-2-(2,6-difluorophenyl)-N-(4-((2R,4R,5S,6R)-4,5-dihydroxy-6-vinyltetrahydro-2H-pyran-2-yl)pyridin-3-yl)pyrimidine-4-carboxamide] the same measures were 7.48, 7.80, 7.65, 5.84 and less than 5.00.
For `O=C(Nc1cnccc1[C@H]1C[C@@H](O)[C@@]2(O)CCC[C@H]2O1)c1ccc(F)c(-c2c(F)cccc2F)n1` [Example 204, 6-(2,6-difluorophenyl)-N-(4-((2R,4R,4aS,7aR)-4,4a-dihydroxyoctahydrocyclopenta[b]pyran-2-yl)pyridin-3-yl)-5-fluoropicolinamide], the pIC50 in experiment [3] is 9.30; in experiment [5], 8.70; in experiment [6] it was 8.55; in experiment [2], 7.34. The same compound showed a pEC50 in experiment [4] of 5.27.
For `CC1(C)O[C@@H](c2ccncc2NC(=O)c2csc(-c3c(F)cccc3F)n2)C[C@H](O)[C@@H]1O` [Example 88, 2-(2,6-difluorophenyl)-N-(4-((2R,4S,5S)-4,5-dihydroxy-6,6-dimethyltetrahydro-2H-pyran-2-yl)pyridin-3-yl)thiazole-4-carboxamide] the same measures were 9.00, 8.30, 7.10, 8.00 and 5.01.
For `O=C(Nc1cnccc1[C@H]1C[C@@H](O)[C@H](O)[C@@H](CCl)O1)c1ccnc(-c2c(F)cccc2F)n1` [Example 37, N-(4-((2R,4R,5S,6S)-6-(chloromethyl)-4,5-dihydroxytetrahydro-2H-pyran-2-yl)pyridin-3-yl)-2-(2,6-difluorophenyl)pyrimidine-4-carboxamide], the pIC50 is 7.92 in experiment [3], 7.77 in experiment [5], 7.19 in experiment [6] and 7.85 in experiment [2]. Further, the negative-log EC50 (pEC50) in experiment [4] is less than 5.00.
Take `Nc1cnc(-c2c(F)cccc2F)nc1C(=O)Nc1cnccc1[C@@H]1C[C@H](N)[C@]2(O)CCC[C@@H]2O1` [Example 214, 5-amino-N-(4-((2S,4S,4aR,7aS)-4-amino-4a-hydroxyoctahydrocyclopenta[b]pyran-2-yl)pyridin-3-yl)-2-(2,6-difluorophenyl)pyrimidine-4-carboxamide]: the negative-log IC50 (pIC50) in experiment [3] is 6.59; in experiment [5], 6.43; in experiment [6] it was 5.65; in experiment [2], less than 4.60. Also, in experiment [4], the pEC50 was less than 5.00.
For the compound `CC[C@]1(O)[C@H](O)C[C@H](c2ccncc2NC(=O)c2nc(-c3ccccc3)ncc2N)O[C@@H]1C` [Example 26, 5-amino-N-(4-((2R,4R,5S,6R)-5-ethyl-4,5-dihydroxy-6-methyltetrahydro-2H-pyran-2-yl)pyridin-3-yl)-2-phenylpyrimidine-4-carboxamide], the negative logarithm of the IC50 (pIC50) was 8.40 in experiment [3], 8.70 in experiment [5], 7.54 in experiment [6] and 6.56 in experiment [2]. This compound also had a pEC50 in experiment [4] of less than 5.00.
